In paper PMC8286840, “Identifying SARS-CoV-2 antiviral compounds by screening for small molecule inhibitors of Nsp3 papain-like protease” (Biochemical Journal, 2021) one finds remaining activity data, which are given here for 31 compounds.

Test [1] has as its target T1, SARS-CoV-2 PLpro (nsp3 1564–1878) (Severe acute respiratory syndrome coronavirus 2, UniProt P0DTD1). The experiment in a line: biochemical. More on the design: FRET-quenched peptide (Pro3) cleavage by PLpro, 10 min pre-incubation, slope over 20 min, normalised to no-compound control. Conditions: low concentration screen, read-out: % of control remaining.
The target of test [2] is T1, SARS-CoV-2 PLpro (nsp3 1564–1878). The experiment in a line: biochemical. More on the design: FRET-quenched peptide (Pro3) cleavage by PLpro, 10 min pre-incubation, slope over 20 min, normalised to no-compound control. The conditions noted are these: high concentration screen, read-out: % of control remaining.

Molecules are shown by their SMILES. Structures can show the parent of a compound that is named as a salt. Where two headings read alike, the source gives them in different places.

On to `CCCCC/C=C/C/C=C/C/C=C/C/C=C/CCCCCC(=O)O` [Adrenic acid (22:4 n-6)], for which the remaining activity at 1.25 µM in test [1] (Well no.=4253) came out at 105%. The remaining activity at 3.75 µM in test [2] (Well no.=4253) was found to be 98.5%.
For the compound `N=C(N)NCCCCN` [Agmatine (sulfate)], in test [1] (Well no.=7803), the remaining activity at 1.25 µM stood at 104%. The remaining activity at 3.75 µM in test [2] (Well no.=7803) came to 106%.
Turning to `N=C(N)NCCCCN` [Agmatine sulfate], the remaining activity at 1.25 µM in test [1] (Well no.=261) was found to be 93.6%. Also, in test [2] (Well no.=261), the remaining activity at 3.75 µM turned out to be 96.2%.
With `COc1ccc2cccc(CCNC(C)=O)c2c1` [Agomelatine], the remaining activity at 1.25 µM in test [1] (Well no.=5143) was determined as 100%; in test [1] (Well no.=7340) it was 99.9%. Further, the remaining activity at 3.75 µM in test [2] (Well no.=5143) was 100%; in test [2] (Well no.=7340), 102%.
On to `CC1=C[C@@H]2c3cccc4[nH]cc(c34)C[C@H]2N(C)C1` [Agroclavine], for which, in test [1] (Well no.=210), the remaining activity at 1.25 µM was found to be 94.3%. For the same compound, in test [2] (Well no.=210), the remaining activity at 3.75 µM came out at 93.5%.
In the case of `CC[C@H]1[C@@H]2C[C@H]3[C@@H]4N(C)c5ccccc5[C@]45C[C@@H]([C@H]2[C@H]5O)N3[C@@H]1O` [Ajmaline], in test [1] (Well no.=3437), the remaining activity at 1.25 µM worked out at 98.9%. In addition, the remaining activity at 3.75 µM in test [2] (Well no.=3437) came out at 98.2%.
As to `CC[n+]1c(/C=C/N(C)c2ccccc2)n(-c2ccccc2)c2ccc(-c3nc4ccccc4s3)cc21` [Akt Inhibitor IV], in test [1] (Well no.=2311), the remaining activity at 1.25 µM stood at 102%. Moreover, in test [2] (Well no.=2311), the remaining activity at 3.75 µM worked out at 101%.
Regarding `CCN(CC)CCCCN1c2ccccc2Oc2ccc(Cl)cc21` [Akt Inhibitor X], in test [1] (Well no.=2317), the remaining activity at 1.25 µM amounted to 101%. Moreover, the remaining activity at 3.75 µM in test [2] (Well no.=2317) came out at 102%.
On to `O=c1[nH]c2ccccc2n1C1CCN(Cc2ccc(-c3[nH]c4cc5ncnc5cc4nc3-c3ccccc3)cc2)CC1` [Akt-I-1,2], for which the remaining activity at 1.25 µM in test [1] (Well no.=2755) was found to be 101%. In addition, the remaining activity at 3.75 µM in test [2] (Well no.=2755) turned out to be 98.5%.
For the compound `CN(C)CC(C)(C)CNc1nn2c(-c3ccccc3)nnc2cc1C1CCC1` [Akt-I-1], the remaining activity at 1.25 µM in test [1] (Well no.=2707) came out at 107%. For the same compound, in test [2] (Well no.=2707), the remaining activity at 3.75 µM was 106%.
For the compound `CC(N)C(=O)OC(C)(C)Cc1ccc(Cl)cc1` (stereo not shown) [Alaproclate hydrochloride], in test [1] (Well no.=208), the remaining activity at 1.25 µM stood at 102%. Moreover, in test [2] (Well no.=208), the remaining activity at 3.75 µM was 102%.
As for `CCNC(=O)[C@@H]1CCCN1C(=O)[C@H](CCCN=C(N)N)NC(=O)[C@H](CC(C)C)NC(=O)[C@@H](C)NC(=O)[C@H](Cc1ccc(O)cc1)NC(=O)[C@H](CO)NC(=O)[C@H](Cc1c[nH]c2ccccc12)NC(=O)[C@H](Cc1cnc[nH]1)NC(=O)[C@@H]1CCC(=O)N1` [Alarelin (Acetate)], the remaining activity at 1.25 µM in test [1] (Well no.=8383) stood at 98.8%. Besides, the remaining activity at 3.75 µM in test [2] (Well no.=8383) worked out at 97%.
Take `CCCSc1ccc2[nH]c(NC(=O)OC)nc2c1` [Albendazole]: the remaining activity at 1.25 µM in test [1] (Well no.=2083) came out at 103%. Besides, in test [2] (Well no.=2083), the remaining activity at 3.75 µM was 105%.
With `CN1CCC(=C2c3ccccc3CCn3c(C=O)cnc32)CC1` [Alcaftadine], the remaining activity at 1.25 µM in test [1] (Well no.=6573) stood at 94.6%. Moreover, the remaining activity at 3.75 µM in test [2] (Well no.=6573) turned out to be 91.1%.
Consider `O=C(NCc1ccc2c(c1)OCO2)c1c(Cl)cccc1Cl` [Alda-1], for which the remaining activity at 1.25 µM in test [1] (Well no.=5935) was 101%. Besides, the remaining activity at 3.75 µM in test [2] (Well no.=5935) was determined as 99.3%.
With `NCCCC(O)(P(=O)(O)O)P(=O)(O)O` [Alendronate], the remaining activity at 1.25 µM in test [1] (Well no.=2079) came to 105%. Also, the remaining activity at 3.75 µM in test [2] (Well no.=2079) was 104%.
As for `C=C1/C(=C\C=C2/CCC[C@]3(C)[C@@H]([C@H](C)CCCC(C)C)CC[C@@H]23)C[C@@H](O)C[C@@H]1O` [Alfacalcidol], the remaining activity at 1.25 µM in test [1] (Well no.=1854) amounted to 96.4%. In test [2] (Well no.=1854), the remaining activity at 3.75 µM was determined as 99.8%.
For `COc1cc2nc(N(C)CCCNC(=O)C3CCCO3)nc(N)c2cc1OC` (stereo not shown) [Alfuzosin], the remaining activity at 1.25 µM was 98.4% in test [1] (Well no.=1809) and 100% in test [1] (Well no.=6749). For the same compound, the figures for the remaining activity at 3.75 µM in test [2] (Well no.=1809) and in test [2] (Well no.=6749) were 97.8% and 92.3%, respectively.
For `C=CCc1cc(OC)c(O)c(C(=O)NCCO)c1` [Alibendol], in test [1] (Well no.=5002), the remaining activity at 1.25 µM was found to be 101%. Besides, in test [2] (Well no.=5002), the remaining activity at 3.75 µM is 94.9%.
With `COc1cc(Nc2ncc3c(n2)-c2ccc(Cl)cc2C(c2c(F)cccc2OC)=NC3)ccc1C(=O)O` [Alisertib], the remaining activity at 1.25 µM in test [1] (Well no.=6164) was determined as 103%. Also, the remaining activity at 3.75 µM in test [2] (Well no.=6164) is 103%.
In the case of `COCCCOc1cc(C[C@@H](C[C@H](N)[C@@H](O)C[C@H](C(=O)NCC(C)(C)C(N)=O)C(C)C)C(C)C)ccc1OC` [Aliskiren hemifumarate], the remaining activity at 1.25 µM in test [1] (Well no.=5148) was determined as 107%. In addition, the remaining activity at 3.75 µM in test [2] (Well no.=5148) was found to be 104%.
Take `O=C1c2ccccc2C(=O)c2c1ccc(O)c2O` [Alizarin]: the remaining activity at 1.25 µM in test [1] (Well no.=5284) is 94.6%. Moreover, the remaining activity at 3.75 µM in test [2] (Well no.=5284) turned out to be 95.1%.
On to `CC1=C(/C=C/C(C)=C/C=C/C(C)=C/C=O)C(C)(C)CCC1` [All-trans-retinal], for which, in test [1] (Well no.=7443), the remaining activity at 1.25 µM came to 102%. Further, the remaining activity at 3.75 µM in test [2] (Well no.=7443) was determined as 102%.
With `NC(=O)NC1NC(=O)NC1=O` (stereo not shown) [Allantoin], the remaining activity at 1.25 µM came to 104% in test [1] (Well no.=6631) and 106% in test [1] (Well no.=8145). The remaining activity at 3.75 µM in test [2] (Well no.=6631) worked out at 106%; in test [2] (Well no.=8145), 97.6%.
Consider `CC(=O)[C@H]1CC[C@H]2[C@@H]3CC[C@H]4C[C@H](O)CC[C@]4(C)[C@H]3CC[C@]12C` [Allopregnanolone], for which, in test [1] (Well no.=6197), the remaining activity at 1.25 µM turned out to be 105%. Also, the remaining activity at 3.75 µM in test [2] (Well no.=6197) was found to be 107%.
On to `Oc1ncnc2[nH]ncc12` [Allopurinol], for which the results for the remaining activity at 1.25 µM in test [1] (Well no.=102) and in test [1] (Well no.=2077) were 106% and 104%, respectively. Moreover, the remaining activity at 3.75 µM turned out to be 105% in test [2] (Well no.=102) and 104% in test [2] (Well no.=2077).
As to `O=c1[nH]c(=O)c2nc3ccccc3nc2[nH]1` [Alloxazine], the remaining activity at 1.25 µM in test [1] (Well no.=354) was 90.3%. In addition, the remaining activity at 3.75 µM in test [2] (Well no.=354) came to 88.5%.
As for `C=CCNC(N)=S` [Allylthiourea], in test [1] (Well no.=5076), the remaining activity at 1.25 µM is 106%. In addition, the remaining activity at 3.75 µM in test [2] (Well no.=5076) was 106%.
For `CN(C)CCc1c[nH]c2ccc(CS(=O)(=O)N3CCCC3)cc12` [Almotriptan (malate)], in test [1] (Well no.=6271), the remaining activity at 1.25 µM worked out at 106%. Further, in test [2] (Well no.=6271), the remaining activity at 3.75 µM was found to be 106%.
With `O=C1c2cccc(O)c2C(=O)c2c(O)cc(CO)cc21` [Aloe-emodine], in test [1] (Well no.=3156), the remaining activity at 1.25 µM came out at 105%. Also, the remaining activity at 3.75 µM in test [2] (Well no.=3156) amounted to 102%.
Regarding `Cn1c(=O)cc(N2CCC[C@@H](N)C2)n(Cc2ccccc2C#N)c1=O` [Alogliptin (SYR-322)], the remaining activity at 1.25 µM in test [1] (Well no.=5179) was determined as 104%. Moreover, in test [2] (Well no.=5179), the remaining activity at 3.75 µM was 97.5%.
